These results are taken from patent US12617803B2, “Condensed isoxazoline derivatives and their use as herbicides” (BASF SE, priority 2020, dated 2026).

Holding throughout (format): in vivo
Experiment [1] relates to AMARE (Amaranthus retroflexus). In words: greenhouse pre-emergence herbicidal test. The settings on record: 0.125 kg/ha, scale from 0 to 100. An excerpt:
(§1) The seeds of the test plants were sown separately for each species. For the pre-emergence treatment, the active ingredients, which had been suspended or emulsified in water, were applied directly after sowing by means of finely distributing nozzles. The containers were irrigated gently to promote germination and growth and subsequently covered with transparent plastic hoods until the test plants had rooted. This cover caused uniform germination of the test plants, unless this had been impaired by the active ingredients. For the post-emergence treatment, the test plants were first grown to a height of 3 to 15 cm, depending on the plant habit, and only then treated with the active ingredients which had been suspended or emulsified in water. For this purpose, the test plants were either sown directly and grown in the same containers, or they were first grown separately as seedlings and transplanted into the test containers a few days prior to treatment. Depending on the species, the test plants were kept at 10-25° C. or 20-35° C., respectively. The test period extended over 2 to 4 weeks. During this time, the test plants were tended, and their response to the individual treatments was evaluated. Evaluation was carried out using a scale from 0 to 100. 100 means no emergence of the test plants, or complete destruction of at least the aerial moieties, and 0 means no damage, or normal course of growth. A good herbicidal activity is given at values of 70 to 90 and a very good herbicidal activity is given at values of 90 to 100. The test plants used in the greenhouse experiments were of the following species: [table]

Experiment [2] concerns APESV (Apera spica-venti). In words: greenhouse pre-emergence herbicidal test. The following applies: scale from 0 to 100, read-out: herbicidal activity against APESV; for pest or weed control at 125 g/ha: pre-emergence, 0.125 kg/ha; for pest or weed control at 250 g/ha: pre-emergence, 0,250 kg/ha.
Excerpt: as §1

Experiment [3] relates to ALOMY (Alopercurus myosuroides). Nature of the experiment: greenhouse post-emergence herbicidal test. The settings on record: 0.125 kg/ha, scale from 0 to 100.
Excerpt: as §1

Experiment [4] concerns AMARE (Amaranthus retroflexus). Nature of the experiment: greenhouse post-emergence herbicidal test. The following applies: scale from 0 to 100.
Excerpt: as §1

Experiment [5] deals with AVEFA (Avena fatua). In words: greenhouse post-emergence herbicidal test. The following applies: scale from 0 to 100, read-out: herbicidal activity against AVEFA; for pest or weed control at 125 g/ha: 0.125 kg/ha; for pest or weed control at 250 g/ha: 0.250 kg/ha; for pest or weed control at 630 g/ha: 0.63 kg/ha.
Excerpt: as §1

Experiment [6] concerns SETFA (Setaria faberi). In words: greenhouse pre-emergence herbicidal test. The settings on record: scale from 0 to 100.
Excerpt: as §1

Experiment [7] deals with ECHCG (Echinocloa crus-galli). In words: greenhouse pre-emergence herbicidal test. The following applies: pre-emergence, 0,250 kg/ha, scale from 0 to 100.
Excerpt: as §1

In experiment [8] the test system is ABUTH (Abutilon theophrasti). In words: greenhouse post-emergence herbicidal test. The following applies: 0.500 kg/ha, scale from 0 to 100.
Excerpt: as §1

Experiment [9] relates to SETVI (Setaria viridis). In words: greenhouse post-emergence herbicidal test. The settings on record: scale from 0 to 100.
Excerpt: as §1

Experiment [10] has as its system ECHCG (Echinocloa crus-galli). Nature of the experiment: greenhouse post-emergence herbicidal test. The following applies: 0.63 kg/ha, scale from 0 to 100.
Excerpt: as §1

For experiment [11], the system named is POLCO (Fallopia convolvulus). In words: greenhouse post-emergence herbicidal test. The following applies: 0.63 kg/ha, scale from 0 to 100.
Excerpt: as §1

As to `COC(=O)[C@@H]1C=C[C@H](NC(=O)C23CCCC2C(c2cc(Cl)cc(Cl)c2)=NO3)C1` (some centres unmarked) [I1], the “herbicidal activity against AMARE” value in [1] and in experiment [4] (0.125 kg/ha) was “very good (a very good herbicidal activity is given at values of 90 to 100)” in each case. In addition, the pest or weed control at 125 g/ha in [2] fell in the range of 90 to 100%; in [5], 70 to 90%. Also, the “herbicidal activity against ALOMY” value in [3] was “good (A good herbicidal activity is given at values of 70 to 90)”.

For `COC(=O)CC[C@H](C)NC(=O)C12CCCC1C(c1cc(Cl)cc(Cl)c1)=NO2` (some centres unmarked) [I2], the pest or weed control at 125 g/ha in [2] was in the range of 70 to 90%; in experiment [5] it was 90 to 100%. Also, in [3], the “herbicidal activity against ALOMY” value was “very good (a very good herbicidal activity is given at values of 90 to 100)”. Moreover, the “herbicidal activity against AMARE” value in experiment [4] (0.125 kg/ha) is on record as “good (A good herbicidal activity is given at values of 70 to 90)”.

For `COC(=O)[C@@H]1C=C[C@H](NC(=O)C23NCCC2C(c2cc(Cl)cc(Cl)c2)=NO3)C1` (stereo partly drawn) [I10, methyl (1S,4R)-4-[3-(3,5-dichlorophenyl)-3aH,4H,5H,6H-pyrrolo[3,2-d][1,2]oxazole-6a-amido]cyclopent-2-ene-1-carboxylate], the pest or weed control at 250 g/ha in [2] is 70 to 90%; in [5], 90 to 100%.

For `COC(=O)[C@@H]1C=C[C@H](NC(=O)C23ON=C(c4cc(Cl)cc(Cl)c4)C2CCC3(C)C)C1` (some centres unmarked) [I12], the “herbicidal activity against SEFTA” value in [6] (pre-emergence, 0.125 kg/ha) is reported as “good (A good herbicidal activity is given at values of 70 to 90)”.

Take `COC(=O)[C@@H]1C=C[C@H](NC(=O)C23ON=C(c4cc(Cl)cc(Cl)c4)C2CCS3)C1` (stereo partly drawn) [I13, methyl (1S,4R)-4-[[3-(3,5-dichlorophenyl)-4,5-dihydro-3aH-thieno[3,2-d]isoxazole-6a-carbonyl]amino]cyclopent-2-ene-1-carboxylate]: the pest or weed control at 250 g/ha in experiment [2] and in experiment [5] was 90 to 100% throughout. Further, the “herbicidal activity against ECHCG” value in [7] is “very good (a very good herbicidal activity is given at values of 90 to 100)”.

Take `COC(=O)CC[C@H](C)NC(=O)C12ON=C(c3cc(F)cc(F)c3)C1CCS2` (some centres unmarked) [I15]: the pest or weed control at 500 g/ha lay in the range of 70 to 90% in experiment [2] (pre-emergence, 0,500 kg/ha) and 90 to 100% in [5] (0.500 kg/ha). The “herbicidal activity against ABUTH” value in experiment [8] is on record as “good (A good herbicidal activity is given at values of 70 to 90)”. In addition, the “herbicidal activity against SETVI” value in [9] (0.500 kg/ha) is recorded as “very good (a very good herbicidal activity is given at values of 90 to 100)”.

As to `COC(=O)CC[C@H](C)NC(=O)C12CC1C(c1cc(F)cc(F)c1)=NO2` (stereo partly drawn) [I16, methyl (4S)-4-[[4-(3,5-difluorophenyl)-2-oxa-3-azabicyclo[3.1.0]hex-3-ene-1-carbonyl]amino]pentanoate], the results for the pest or weed control at 250 g/ha in experiment [2] and in [5] were 70 to 90% and 90 to 100%, respectively.

Regarding `COC(=O)C1C=C[C@H](NC(=O)C23CC2C(c2cc(Cl)cc(Cl)c2)=NO3)C1` (some centres unmarked) [I17], the pest or weed control at 250 g/ha in experiment [2] and in [5] was 90 to 100% throughout.

With `COC(=O)[C@@H]1C=C[C@H](NC(=O)C23C=CCC2C(c2cc(F)cc(F)c2)=NO3)C1` (stereo partly drawn) [I19, methyl (1S,4R)-4-[[3-(3,5-difluorophenyl)-3a,4-dihydrocyclopenta[d]isoxazole-6a-carbonyl]amino]cyclopent-2-ene-1-carboxylate], in experiment [6] (pre-emergence, 0,250 kg/ha), the “herbicidal activity against SETFA” value is listed as “very good (a very good herbicidal activity is given at values of 90 to 100)”. The pest or weed control at 250 g/ha in experiment [2] and in experiment [5] was 90 to 100% each time.

With `COC(=O)[C@H]1C[C@@H](NC(=O)C23CCC2C(c2cc(Cl)cc(Cl)c2)=NO3)CO1` (some centres unmarked) [I20], the “herbicidal activity against SETVI” value in experiment [9] (0.63 kg/ha) is given as “very good (a very good herbicidal activity is given at values of 90 to 100)”. Besides, the “herbicidal activity against ECHCG” value in experiment [10] is reported as “good (A good herbicidal activity is given at values of 70 to 90)”. Also, the pest or weed control at 630 g/ha in experiment [5] was in the range of 90 to 100%.

For `COC(=O)[C@H]1CC[C@H](NC(=O)C23CCC2C(c2cc(Cl)cc(Cl)c2)=NO3)C1` (some centres unmarked) [I21], in experiment [11], the “herbicidal activity against POLCO” value is “good (A good herbicidal activity is given at values of 70 to 90)”. Besides, the “herbicidal activity against AMARE” value in experiment [4] (0.63 kg/ha) is “very good (a very good herbicidal activity is given at values of 90 to 100)”. Further, the pest or weed control at 630 g/ha in experiment [5] lay in the range of 70 to 90%.
